From publication PMC4838876, “Multivalent display of minimal Clostridium difficile glycan epitopes mimics antigenic properties of larger glycans” (Nature Communications, 2016)

System: mAb 10A1
Assay: STD-NMR epitope mapping
Type: binding, mouse
Settings: 200 μM ligand, 2 μM antibody
From the text: To understand antibody binding at molecular-level detail and to identify the functional groups involved in antibody binding, we performed STD-NMR measurements. […] The glucose moiety in 3 contributed weakly to antibody binding around H3 (11%). Despite the low saturation transfer, this interaction appears to be important for antibody binding, as mono-rhamnose 4 was not or only weakly bound by the mAbs in glycan microarray and SPR experiments.
Figure 6 Epitope mapping of glycan–mAb interactions by STD-NMR. (a,b) Recognition of disaccharide 3 by mAb 10A1 shown as Lewis structure and three-dimensional model calculated with Glycam[70]. Colours indicate percentages of STD effects. (c) Recognition patterns of 3 by three mAbs. STD spectra were acquired at 2 s saturation transfer time in the presence of mAbs 2C5, 10A1 and 10D6 (from top to bottom). (d) Competition of trisaccharide 2 by pentasaccharide 1.
Before the STD-NMR studies, proton resonances of oligosaccharides 1–3 were assigned using standard one-dimensional proton spectra, as well as 2D total correlation spectroscopy (2D-TOCSY), correlation spectroscopy, ^1H–^13C heteronuclear single quantum coherence and ^1H–^13C heteronuclear multiple bond correlation spectra at concentrations varying between 5 and 20 mM in D2O. All NMR studies were measured at 298 K on a Varian PremiumCOMPACT 600 MHz spectrometer equipped with a OneNMR probe. For STD-NMR, samples contained 200 μM ligand and 2 μM antibody in 40 mM phosphate buffer (pH 7.0, uncorrected). On-resonance irradiation was set to −0.5 p.p.m. and off-resonance irradiation was set to 80 p.p.m. A 35-ms T1ρ spin-lock filter and a W5 WATERGATE for solvent suppression were applied. The saturation pulse train consisted of a series of Gaussian shaped pulses of 50 ms duration and 1 ms interpulse delay with an irradiation power of 85 Hz. A total of 2,048 scans were recorded. STD-NMR spectra of carbohydrates in the absence of antibody and spectra of antibody only served as negative controls. Here, saturation and relaxation times were set to 2 and 6 s, respectively. STD build-up curves for mAb 10A1 were recorded at saturation transfer times of 0.5, 1, 2, 4 and 6 s, adjusting the prescan delay accordingly. Epitopes for mAbs 2C5 and 10D6 were recorded with a saturation transfer time of 2 s. NMR spectra were processed in MestReNova 9.1 (MestreLab) and data were analysed in OriginPro9 (OriginLab) to obtain the binding epitopes according to Mayer and James[28]. For the competition experiments, 1 was added to samples of 3 or 2 to a final concentration of 200 μM applying a saturation transfer time of 2 s.

## C[C@@H]1O[C@@H](O[C@@H]2[C@@H](O)[C@H](OCCCCCN)O[C@H](CO)[C@H]2O)[C@H](O)[C@H](O)[C@H]1O [Compound 3, Rha-(1→3)-Glc]
  normalized STD effect, glucose H3: 11%
  normalized STD effect, rhamnose H2: 78%
  normalized STD effect, rhamnose H3: 99%
  normalized STD effect, rhamnose methyl protons H6, H'6 and H''6: 100%
